Assay results published in patent US20230181905A1, “Systems, Devices, and Methods for Enhancing the Neuroprotective Effects of Non-Invasive Gamma Stimulation with Pharmacological Agents” (Massachusetts Institute of Technology, priority 2021, published 2023).

Experiments:
Assay type in all cases: in vivo, mouse
GFAP+ astrocytes = experiment: GFAP+ astrocyte immunohistochemistry; details: 5×FAD mice; Plx3397 diet 50 days vs control
Description: To study how CSF1R-sensitive microglia impact neural activity in the context of AD, an amyloidosis mouse model, the 5×FAD mice—which is a most commonly used mouse model for AD, was subject to a diet containing CSF1R inhibitor Plx3397 for 50 days (FIG. 21A). The CSF1R inhibitor Plx3397 (600 ppm) was employed, which was previously shown to effectively reduce microglia in vivo. Control mice were age-matched 5×FAD litters that received a regular diet. Electrophysiological recordings were performed using linear probes. Post-recording, the recording site in the visual cortex was verified by histology (FIG. 21), and microglia reduction was evaluated by assessing IBA1+ cell numbers.
Antibodies: IBA1 (Synaptic Systems, Cat #234 004, dilution-1:500; Wako Chemicals, Cat #019-19741, dilution-1:500), GFAP (Thermo Fisher Scientific, Cat #130300, dilution-1:500), MEF2C (Cell Signaling Technology, Cat #5030T), MAC2 (Cedarlane Labs, Cat #CL8942AP, dilution-1:500), vGAT (Synaptic Systems, Cat #131 013, dilution-1:500), vGLUT (Synaptic Systems, Cat #1135 302, dilution-1:500), NeuN (Synaptic Systems, Cat #266 004, dilution-1:1000), MHC2 (EMD Millipore, Cat #MABF33, dilution-1:500), C1q (Abcam, Cat #ab182451, dilution-1:500), synaptophysin (Sigma, Cat #S5768). […]

C1q = C1q signal intensity immunohistochemistry; details: 5×FAD mice
Source text: Elevated expression of C1q is observed in both human AD and mouse models of AD, and further such an elevated expression is closely associated with the elimination of synapses in microglia. In addition, MHC2 expression is increased in the AD brain. Therefore, to test whether these treatments, that improved synaptic density, had any effect on these neuroinflammatory markers, C1q (Abcam, #ab182451) and MHC2 (EMD Millipore, #MABF33) levels (FIGS. 5A-5D) were examined.
C1q and MHC2 signal intensity: Using an LSM 710 with a 20× or 40× objectives, z stacks of the entire slice thickness […] (40 images from each field) were acquired. The signal intensity was measured.
C1q and MHC2 signal intensity: Using an LSM 710 with a 20× or 40× objectives, z stacks of the entire slice thickness […] (40 images from each field) were acquired. The signal intensity was measured in Imaris.

perineuronal nets (WFA) = experiment: WFA staining of perineuronal nets; details: 5×FAD mice
Source text: Perineuronal nets (PNN) of neurons are necessary for neuronal integrity and circuit plasticity. Loss of PNN is shown to occur in AD. […] Therefore, the effect of the treatment on PNN was examined.
Antibodies: IBA1 (Synaptic Systems, Cat #234 004, dilution-1:500; Wako Chemicals, Cat #019-19741, dilution-1:500), GFAP (Thermo Fisher Scientific, Cat #130300, dilution-1:500), MEF2C (Cell Signaling Technology, Cat #5030T), MAC2 (Cedarlane Labs, Cat #CL8942AP, dilution-1:500), vGAT (Synaptic Systems, Cat #131 013, dilution-1:500), vGLUT (Synaptic Systems, Cat #1135 302, dilution-1:500), NeuN (Synaptic Systems, Cat #266 004, dilution-1:1000), MHC2 (EMD Millipore, Cat #MABF33, dilution-1:500), C1q (Abcam, Cat #ab182451, dilution-1:500), synaptophysin (Sigma, Cat #S5768). The following combination of secondary antibodies were used: (1) Alexa Fluor 488, 594 and 647, (2) Alexa Fluor 555 and 647, (3) Alexa Fluor 594 and 647, or (4) Alexa Fluor 488 and 647. All secondary antibodies were obtained from Invitrogen. Biotinylated Wisteria Floribunda Lectin (Vector Laboratories, Cat #B-1355, dilution-1:500) followed by streptavidin conjugated Alexa Fluor 594 (Thermo Fisher Scientific, Cat #S32356, dilution-1:1000) was used to examine WFA.

aggrecan = experiment: Aggrecan immunohistochemistry around PV interneurons; details: 5×FAD mice, visual cortex; Plx3397 50 days
Source text: These observations led to examination of the effect of Plx3397 administration on neuronal integrity. […] Indeed, it was observed that Plx3397 administration increased WFA+(Wisteria floribunda agglutinin, a PNN marker) PNN signals (au, 289400000±9384029 versus 213000000±16633300 in controls) (FIG. 22A, 22F), while aggrecan (a component in PNN) signals were […] specifically around PV interneurons in Plx3397 administered 5×FAD mice (12.34±0.4791 versus 7.837±0.3549 in controls) (FIG. 22A, 22G).

[1] = test system: myelin basic protein (MBP); experiment: MBP levels and myelination of PV axons; details: 5×FAD mice
Source text: It was next sought to understand whether Plx3397 administration-dependent electrophysiological alterations were attributed to changes in amyloid plaque levels. […] In the cuprizone model of demyelination, Plx33977 administration preserved myelin. It was thus considered whether electrophysiological alterations are associated with myelin levels in Plx3397 treated 5×FAD mice.
These observations point to synaptic connectivity, PNN extracellular architecture, and myelination as biological processes that GENUS impacts to improve the outcomes in Plx3397 administered 5×FAD mice. To further validate this, additional biochemical analyses were performed. […] Next, it was observed that Plx3397 (130.4±7.178), GENUS (116.2±5.225) and Plx3397+GENUS (119.0±6.325) all increased the WFA signals with the highest levels in Plx3397 alone group compared to controls (100±4.655) (FIGS. 25D, 25F). […] Synaptic input arriving within the PNN of parvalbumin (PV) interneurons and the PNN architecture are shown to modulate the activity of PV interneurons robustly. […] Next, although the total MBP levels was not affected (100±19.58, 132.4±30.10, 140.2±25.31, & 133.4±22.13 in control, Plx3397, GENUS, Plx3397+Genus groups, respectively), GENUS increased myelin ensheathment of axons of PV interneurons in Plx3397 administered 5×AFAD mice (20.75±1.45, 25.44±2.83, 37.91±4.56, & 31.3±3.21) (FIGS. 25D, 25H, 25I and FIG. 30C). Collectively, these findings show improved synaptic connectivity and axonal myelination of PV interneurons after repeated GENUS in Plx3397 administered 5×FAD mice.

[2] = hippocampus, chronic Plx3397 vs control

FC(F)(F)c1ccc(CNc2ccc(Cc3c[nH]c4ncc(Cl)cc34)cn2)cn1 [Plx3397, Pexidartinib]
GFAP+ astrocytes (GFAP+ astrocytes): no difference
C1q levels (C1q; [2]): reduced
C1q (C1q; visual cortex, Plx3397 50 days): 22040955±1586416 au
WFA content within the microglia compared to control mice (perineuronal nets (WFA)): higher
WFA signals (perineuronal nets (WFA); [2]): increased
PNN coverage (perineuronal nets (WFA); visual cortex): increased
WFA overall signal intensity (perineuronal nets (WFA); visual cortex): increased
WFA signals (perineuronal nets (WFA); visual cortex): 130.4±7.178 % of no treatment control
WFA+ PNN signals (perineuronal nets (WFA); visual cortex, Plx3397 50 days): 289400000±9384029 au
aggrecan signals around PV interneurons (aggrecan): 12.34±0.4791
MBP levels [1, 2]: did not affect
overall MBP signals ([1]; visual cortex, Plx3397 50 days, not significantly affected): 953800000±1277515477 au
total MBP levels ([1]; western blot, control 100±19.58, not affected): 132.4±30.10
myelin ensheathment of axons of PV interneurons ([1]; control 20.75±1.45): 25.44±2.83
